# Measured values reported in a melting point compilation (Tetko et al.).
row,Structure (SMILES),melting point [°C]
1,O=C1N[C@H](C(=O)O)CS1,166 to 170
2,Nc1ccc(-c2ncco2)cc1,104 to 106
3,Cc1ccc([N+](=O)[O-])c(OCCC(=O)O)c1,134 to 136
4,Nc1ccc(S(=O)C(F)(F)F)cc1 (centres undefined),76 to 78
5,O=C(O)C=Cc1ccc2ccccc2n1,169 to 171
6,Cc1ccc(-n2ccnc2)c(C(=O)O)c1,259 to 261
7,CCOc1ccccc1-c1cc(C(=O)O)n[nH]1,224 to 226
8,O=S1(=O)CCC(S(=O)(=O)Cl)CC1,175 to 177
9,N#CC1(N2CCNCC2)CCCCC1,82 to 84
10,O=S1(=O)CC(O)C(NCCO)C1 (centres undefined),115 to 117
11,CC(Cl)C(=O)NC(=O)Nc1ccccc1F (centres undefined),135 to 137
12,CNC(=O)c1ccc(Cl)c(N)c1,144 to 146
13,Cc1cc(C=O)ccc1-n1cncn1,104 to 106
14,COC(=O)c1occc1CBr,50 to 52
15,CC(=O)c1ccc2c(c1)CCC(=O)N2,162 to 164
16,O=S(=O)(Cl)c1cnccc1Cl,45 to 47
17,Cc1c(C(=O)O)cnn1Cc1ccccc1,172 to 174
18,Cc1ccc(C(C)O)cc1[N+](=O)[O-] (centres undefined),48 to 50
19,O=C(O)CCc1nc2ccccc2o1,110 to 112
20,COC(=O)c1ccc(OCC2CO2)cc1 (centres undefined),59 to 61
21,O=C(O)C1CCCN(S(=O)(=O)c2ccccc2)C1 (centres undefined),121 to 123
22,CCOC(=O)COc1ccc(S(C)(=O)=O)cc1[N+](=O)[O-],131 to 133
23,Cc1oc(C(=O)O)cc1Cn1cc(Br)cn1,154 to 156
24,Cc1nsc(Nc2ccccc2)c1C#N,172 to 174
25,N#Cc1cnc(C(=O)O)c(Cl)c1,149 to 151

row,Structure (SMILES),melting point [°C]
1,O=CC1=Cc2c(ccc3ccccc23)OC1,144 to 146
2,CC(C)c1nnc(S)n1C,139 to 141
3,O=Cc1cn2cccc(F)c2n1,163 to 165
4,c1ccc(Nc2ncccn2)cc1,107 to 109
5,O=C(O)CNC(=O)NC1CC1,179 to 181
6,CC=Cc1ccc(OCCCC(=O)OC)c(OC)c1,38 to 40
7,N#Cc1ccc(Oc2ccc(F)c(Cl)c2)c(F)c1,97 to 99
8,Nn1cnnc1-c1ccccc1,115 to 117
9,OC(CNCc1ccccc1)c1cccs1 (centres undefined),95 to 97
10,CC(SCc1ncc(-c2ccc(Cl)cc2)o1)C(=O)O (centres undefined),129 to 131
11,O=C(O)C1=COCCC1,71 to 73
12,Nc1ccccc1C(=O)N1CCCCC1,79 to 83
13,O=Cc1cn(Cc2ccccc2)nc1-c1ccccc1,85 to 87
14,CCc1ccc(C(=O)O)cc1N,146 to 148
15,O=C(O)c1c(C(F)(F)F)nn(-c2ccccc2)c1C(F)(F)F,156 to 158
16,Cc1c(Br)cc(S(=O)(=O)Cl)cc1[N+](=O)[O-],122 to 124
17,O=C(O)c1cc(-c2ccncc2)on1,276 to 278
18,N#Cc1nc(Cl)ccc1Cl,98 to 100
19,NC(=O)COc1ccc(C(=O)CCl)cc1,163 to 165
20,Nc1nnc(Cc2ccc(F)cc2)s1,170 to 172
21,CCCC(C(=O)O)c1ccccc1 (centres undefined),63 to 67
22,Clc1ccc(OCCBr)c(Br)c1,30 to 32
23,O=C(O)c1ccc2nnc(C3CC3)n2c1,290 to 292
24,CC(=O)c1cc([N+](=O)[O-])ccc1N,144 to 146
25,O=c1[nH]ccc2sccc12,159 to 161

row,Structure (SMILES),melting point [°C]
1,Cc1ccccc1-c1nnc(S)n1N,199 to 201
2,Cc1ccc(C)c(SCc2cccc(C(=O)O)c2)c1,129 to 131
3,CN(C)S(=O)(=O)c1cc(C(=O)O)ccc1F,199 to 201
4,NS(=O)(=O)C1CCCC1,76 to 78
5,COc1cc(OC)c(N(C)S(=O)(=O)c2cccc(C(=O)O)c2)cc1Cl,208 to 210
6,CC(C)(C)OC(=O)N1CCC(C(=O)O)(c2ccccc2)CC1,116 to 118
7,CNc1c(F)cccc1C(N)=O,186 to 188
8,Cc1ccc(-n2cc(S(=O)(=O)Cl)cn2)cc1,92 to 94
9,N#CC1=C(N)Oc2ccccc2C1,143 to 145
10,COc1ccccc1-c1nnc(S)n1N,210 to 220
11,O=C(NCCc1ccccn1)OCC(F)(F)F,59 to 61
12,Cc1ccn2c(N)c(-c3ccc(F)cc3)nc2c1,188 to 190
13,Nc1cc(C(=O)O)ccc1OCC(F)(F)F,176 to 178
14,CN(C)c1nnc(S)s1,178 to 180
15,ClCc1cc2ccccc2s1,49 to 51
16,O=C1CSc2ccncc2N1,203 to 205
17,Cc1[nH]ncc1S(=O)(=O)Cl,95 to 97
18,COC(=O)C(C)NC(=O)c1ccc(Cl)c([N+](=O)[O-])c1 (centres undefined),102 to 104
19,O=c1ccnc(-c2cccc(O)c2)[nH]1,229 to 231
20,Cc1ccc2c(c1)NC(=O)C(C)O2 (centres undefined),146 to 148
21,Cc1cc2c(c(C)c1Cl)C(=O)CCO2,67 to 69
22,N=C(N)NN=Cc1ccccc1,179 to 181
23,O=C(O)CS(=O)(=O)CC(=O)Nc1ccc(Br)cc1,207 to 209
24,c1ccc(OCCc2nc3ccccc3[nH]2)cc1,136 to 138
25,NNc1ccnc(F)c1,98 to 100

row,Structure (SMILES),melting point [°C]
1,CCc1c(-c2ccncc2)n[nH]c1N,154 to 156
2,CC(NC(=O)c1ccoc1)C(=O)O (centres undefined),166 to 168
3,O=c1[nH]nc2cnccn12,229 to 231
4,O=S(=O)(Cl)c1csc(-c2cccc(Br)c2)n1,94 to 96
5,O=C(O)c1ccc(Oc2ccc(Cl)cc2)c(F)c1,128 to 130
6,CC(=O)Nc1ccc(CO)cc1,117 to 119
7,CC1(c2ccc(Cl)s2)NC(=O)NC1=O (centres undefined),183 to 185
8,Nc1cc(-c2cccc(Cl)c2Cl)[nH]n1,110 to 112
9,CC(C)c1noc2nc(-c3ccco3)cc(C(=O)O)c12,224 to 226
10,N#Cc1ccc(Cl)cc1NC1CCCCC1,74 to 76
11,O=C(O)C1(c2ccc(F)cc2)CCOCC1,156 to 158
12,NC(=O)Nc1cccc(C(=O)O)c1,269 to 271
13,Cc1cc(Br)cc2c(=O)cc[nH]c12,249 to 251
14,NNC(=O)CSc1ccccc1O,134 to 136
15,O=C(Nc1ccccn1)c1ccc(O)cc1,176 to 178
16,CNCc1nnc[nH]1,91 to 93
17,O=C(O)c1cccc(NS(=O)(=O)c2cccs2)c1,197 to 199
18,Cc1ncc([N+](=O)[O-])cc1C(=O)O,210 to 214
19,Cn1cc(C#N)c(N)n1,119 to 121
20,O=C(c1cc2cc(Br)ccc2o1)c1cccs1,88 to 90
21,CCNC(=O)COc1cccc(CN)c1,62 to 64
22,Cc1nnc(-c2ccccc2N)o1,145 to 147
23,O=C(O)c1ccccc1-c1ncc(-c2ccccc2F)o1,184 to 186
24,O=C(O)c1ccc(F)cc1-c1ccc(Cl)c(Cl)c1,179 to 181
25,Cc1csc(N2CCC(=O)CC2)n1,59 to 61

# More lines, now with the values ahead:
row,melting point [°C],Structure (SMILES)
1,151 to 153,Cc1nn(CCO)c(C(F)(F)F)c1C(=O)O
2,69 to 71,COC(=O)c1cccc(C)c1C#N
3,155 to 157,Cc1nc(CSCC(=O)O)cs1
4,195 to 197,Nc1cccc(S(=O)(=O)Nc2ccccc2F)c1
5,154 to 156,NC(=S)NCC(F)(F)F
6,139 to 141,Nc1c(Cl)ncnc1NC1CC1
7,171 to 173,COc1ccc(NS(=O)(=O)c2ccc(N)cc2)cc1OC
8,109 to 111,Nc1cccc2c1CN(CCO)C2
9,104 to 106,COC(=O)c1oc2ccccc2c1CBr
10,59 to 61,OC(c1ccccc1)c1cccnc1 (centres undefined)
11,264 to 266,COC(=O)c1c[nH]c(=O)c(C#N)c1
12,124 to 126,Fc1ccc(Nc2nccs2)cc1Cl
13,74 to 76,Nc1ccccc1N1CC(C(F)(F)F)OC1=O (centres undefined)
14,142 to 144,O=C(CCCl)Nc1ccc2c(c1)OCO2
15,276 to 278,COC(=O)c1sc2nc(CCl)[nH]c(=O)c2c1C
16,111 to 113,NCc1ccc(-n2cncn2)cc1Cl
17,135 to 137,Nc1cc(C(=O)N2CCCCC2)ccc1Cl
18,159 to 161,O=C(CCl)c1cc2c3c(c1)CC(=O)N3CCC2
19,111 to 113,Cc1nn(-c2ccc(Br)cc2)cc1C=O
20,175 to 177,CCN(c1ccccc1)S(=O)(=O)c1ccc(NN)nc1
21,135 to 136,O=C(O)C1CCN(S(=O)(=O)c2cccc(C(F)(F)F)c2)CC1
22,99 to 101,O=Cc1csc(-c2ccc(F)cc2)n1

row,melting point [°C],Structure (SMILES)
1,278 to 280,O=C(O)c1ccc(-c2cscn2)cc1
2,136 to 138,O=C(O)C1CCCN(S(=O)(=O)c2cccs2)C1 (centres undefined)
3,147 to 149,Nc1c[nH]nc1-c1ccccc1
4,123 to 125,Sc1nnc(NCC2CCCO2)s1 (centres undefined)
5,217 to 219,CCc1cc(=O)[nH]c(-c2ccnc(Cl)c2)n1
6,57 to 59,Cc1cc(CCC(=O)O)c(C)s1
7,217 to 219,O=C(CC(=O)Nc1ccc(F)cc1)Nc1ccc(F)cc1
8,179 to 181,COc1ccc2c(c1)-c1sc(N)nc1CC2
9,138 to 140,O=C(O)CN1C(=O)CCCc2sccc21
10,249 to 251,Nc1cc(F)c([N+](=O)[O-])cc1C(=O)O
11,119 to 121,O=C(O)c1c[nH]c(Br)c1
12,137 to 139,CCOC(=O)c1cnc2ccc(Cl)cn2c1=O
13,143 to 147,O=C(O)c1ccccc1NS(=O)(=O)c1ccc(Cl)c(Cl)c1
14,38 to 40,O=C(c1cccnc1)c1c(F)cc(F)cc1F
15,149 to 151,CC(O)c1nc2ccc(Cl)cc2n1C (centres undefined)
16,144 to 146,Cc1ccc(NC(=O)NC(=O)CCl)cc1C
17,127 to 129,C[C@H](NC(=O)C1CCCCC1)C(=O)O
18,122 to 124,COc1cc2c(cc1NC(=O)OCC(F)(F)F)oc1ccccc12
19,104 to 106,CC(=O)CC(=O)CCN1C(=O)c2ccccc2C1=O
20,129 to 131,COC(=O)c1cc(S(=O)(=O)Cl)c(C(=O)OC)s1
21,191 to 193,COc1ccc(Cc2nnn[nH]2)cc1F
22,204 to 206,NS(=O)(=O)c1cc([N+](=O)[O-])ccc1Br
